Measured values published in patent publication EP0323416A2, “Phenylbenzylidene derivatives of 3-aminopropanesulfonic acid having anticonvulsant activity and pharmaceutical compositions containing same for the therapeutical treatment of epilepsy” (Sigma-Tau Industrie Farmaceutiche Riunite S.p.A., priority 1987, dated 1989).
Marks after values point to notes of the source that are not given here.

Legend:
[1] = system: strychnine-induced convulsions; assay: Strychnine-induced convulsions test in mice; assay type: in vivo, male albino Swiss (Charles River) mice
Protocol: (§1) The doses of cardiazol, strychinine, bicuculline and picrotoxin (100 mg/10 ml/kg i.p., 0.73 mg/10 ml/kg s.c., 2.38 mg/10 ml/kg s.c. and 4.42 mg/10 ml/kg s.c. respectively) were chosen in such a way as to provoke death of 50% of the control animals.
(§2) The tests were carried out in male albino Swiss (Charles River) mice weighing 22-24 g which had been kept fasting for 18 hours.
(§3) 100/0 gum arabic suspensions of the compounds under examination were orally administered 60 minutes before the convulsant agent administration.
(§4) As reference substance, 3-APS (200-400-800 mg/10 ml/kg i.p.) was used.

[2] = system: picrotoxin-induced convulsions; assay: Picrotoxin-induced convulsions test in mice; assay type: in vivo, male albino Swiss (Charles River) mice
Protocol: as §1, §2, §3, §4

[3] = system: cardiazol-induced convulsions; assay: Cardiazol-induced convulsions test in mice; assay type: in vivo, male albino Swiss (Charles River) mice
Protocol: as §1, §2, §3, §4

[4] = system: male albino Swiss mice; assay: Tolerability test, oral; assay type: in vivo; conditions: suspension in 10% gum arabic, dose of 3 g/kg, mice fasting for 18 hours
Protocol: The tolerability test was carried out on male albino Swiss mice weighing 22-24 g. The animals, which had been kept fasting for 18 hours, were orally administered a suspension in 10% gum arabic of the compounds ST 505 and ST 512.

[5] = system: auricular electroshock; assay: Auricular electroshock (maximal electroshock death); assay type: in vivo, Male albino Swiss mice; conditions: oral in gum arabic 60 minutes before the electroshock, 10 mice
Protocol: Male albino Swiss mice weighing 22-24 g were used in this test. The electroshock conditions were the shock duration: 3 seconds; frequence: 100; pulse amplitude: 0.6 milliseconds, current intensity: 40 milliamperes. The compounds ST 505 and ST 512 suspended in gum arabic were orally administered 60 minutes before the electroshock.
The tests results which illustrate the number of animal preserved from death provoked by maximal electroshock are shown in the following Table 4.

[6] = system: bicuculline-induced convulsions; assay: Bicuculline-induced convulsions test in mice; assay type: in vivo, male albino Swiss (Charles River) mice
Protocol: as §1, §2, §3, §4

[7] = system: FeCl3-induced epilepsy; assay: FeCl3-induced epilepsy model (EEG); assay type: in vivo, Male albino Wistar rats; conditions: 500 mg/kg oral 45 minutes following FeCl3 injection; Mann-Whitney's U test, P<0.05
Protocol: Male albino Wistar rats weighing 250-300g were used. The animals, anaesthetized with Nembutal Na (30 mg/kg i.p.), were stereotactically injected in their left ventral hippocampus one microliter of 0.55 M FeCl3 solution (AP=-3.2; L=5.0.; H=5.5 Pelhgrino and Cushman, 1971). Ten minutes following injection, recording electrodes were implanted: in both ventral hippocampi, two millimiters below the FeCl3 injection site (bipolars), bilaterally on the frontoparietal cortex (monopolars). recording of cerebral bioelectric activity, carried out with an EEG OTE-Biomedica PF 14e recorder, began about one hour following FeCl3 injection and lasted more than three hours on end.The epilepsy degree was assessed by calculating for each animal the number and duration in seconds of the seizures at 15-minute intervals during the whole recording span both in the hyppocampus where the injection had been performed and in the contralateral cortex. Moreover, an "index of epileptization" was calculated as the mean product of seizure number times the duration of the seizures in each time interval. […]
The results thus obtained show the antiepileptic activity of the compound assessed by examining the whole phenomenon as it evolves in time via the measure (carried out with the trapezoidal rule) of the area under the curve wherein the average number of seizures and their duration is plotted versus time.

[8] = system: Sodium penicillin G-induced epilepsy; assay: Sodium penicillin G-induced epilepsy (EEG); assay type: in vivo, Male albino Wistar rats; conditions: rats
From the text: In this regard, see: Holmes, O. arid Lockton, J.W.: "Locally generated interictal epilectic spikes in the cortex cerebri of the rat". J.Physiol. (Lond.), 308 (1980) 75-76 P. Lokcton, J.W. and Holmes, O: "Site of penicillin-induced epilepsy in the cortex cerebri of the rat'. Brain research, 190 (1980) 301-304. Reichental, E. and Hocherman, S. : "The critical cortical area for development of penicillin-induced epilepsy". Electroenceph. Clin. Neurophysiol., 42 (1977) 248-251).
Male albino Wistar rats weighing 260-280 g were used in this test. Epilepsy was induced in these rats through the application of 5 mg of sodium penicillin G, power (Carlo Erba) on the left cortex cerebri. EEG recording (electroencephalograph OTE-Biomedica PF 14e) was carried out with cortical electrodes. Following a 15 minute recording period (basal), the animals were orally administered 250 mg/10 ml/kg of ST 505 suspended in 10% gum arabic. The controls were administered 10 ml/kg of 10% gum arabic.
The following parameters were taken into account: • a) numper of peaks of the EEG tracing in subsequent 15 minu te intervals, in an overall 5-hour recording period; and • b) number of fits with attendant average duration for each interval.
With regard to parameter a), the area under the curve was calculated wherein the number of peaks at different times and its accumulation function were plotted versus the observation time, thus obtaining five descriptive parameters: one which gives the measure (area) of the totale amount of epilepsy and four (shape indexes) describing the trends of the peaks during the time interval (five hours) under examination. These shape indexes were the percentile values at 50%, 60%, 70% and 800/0 of the accumulation function of the area versus time and represented, therefore, for each rat, a measure of the distribution of the epileptic fits in time.
The fits were studied with the same model as that utilized for the peaks.

[9] = system: cardiazol-induced convulsions; assay: Cardiazol-induced convulsions test in rats; assay type: in vivo, male albino Wistar rats; conditions: oral, 60 minutes before cardiazole 70 mg/10ml/kg i.p.
Protocol: The compound was also orally administered to male albino Wistar rats weighing 170-200 g (see table 3), at the dose equimolar to 100 mg 3-APS 60 minutes before cardiazole administration (70 mg/10ml/kg i.p.).

[10] = oral, 100 mg/kg eq. 3 APS, 60 minutes before convulsant, mice (Table 2)
[11] = oral, 200 mg/kg eq. 3 APS, 60 minutes before convulsant, mice (Table 2)
[12] = oral, 100 mg/kg eq. 3 APS, 60 minutes before convulsant, mice (Table 3)
[13] = oral, 200 mg/kg eq. 3 APS, 60 minutes before convulsant, mice (Table 3)
[14] = oral, 200 mg/kg eq. 3-APS, versus control
[15] = oral, 100 mg/kg eq. 3-APS, versus control
[16] = 200, 400 and 800 mg/10 ml/kg i.p., mice
[17] = 400 mg/10 ml/kg i.p., mice, versus control

## NS(=O)(=O)CCCN=C(c1ccccc1)c1ccccc1O [ST 512, 3-[(a-phenyl)-2-hydroxybenzylidene] amino propanesulfonamide]
[1]; [10]
  Strychnine % Death rate: 80%
  Strychnine Strong % Conv.: 90%
[1]; [11]
  Strychnine % Death rate: 90%
  Strychnine Strong % Conv.: 80%
[2]; [10]
  Picrotoxin % Death rate: 40%
  Picrotoxin Strong % Conv.: 100%
[2]; [11]
  Picrotoxin % Death rate: 50%
  Picrotoxin Strong % Conv.: 100%
[3]; [10]
  Cardiazol % Death rate: 50%
  Cardiazol Strong % Conv.: 100%
[3]; [11]
  Cardiazol % Death rate: 60%
  Cardiazol Strong % Conv.: 100%
[3]; oral, dose equimolar to 100 mg/10ml/kg of 3-APS, mice
  reduction of cardiazol-induced death rate: 20%
[3]; oral, dose equimolar to 200 mg/10ml/kg of 3-APS, mice
  reduction of cardiazol-induced death rate: 10%
[4]
  tolerability: well tolerated
[5]; dose 200 (unit not given)
  death rate: 3/10
[5]; dose 400 (unit not given)
  death rate: 4/10
[6]; [10]
  Bicuculline % Death rate: 100%
  Bicuculline Strong % Conv.: 90%
[6]; [11]
  Bicuculline % Death rate: 100%
  Bicuculline Strong % Conv.: 100%

## NS(=O)(=O)CCCN=C(c1ccc(Cl)cc1)c1cc(F)ccc1O [ST 505, 3-[[a-(p-chlorophenyl)-5-fluoro-2-hydroxybenzylidene]amino]propanesulfonamide]
[1]; oral, 100 mg/kg eq. 3-APS
  reduction of strychnine-induced death rate: 20%
[1]; [12]
  Strychnine % Death rate: 30%
  Strychnine Strong % Conv.: 60%
[1]; oral, 200 mg/kg eq. 3-APS
  strychnine-induced convulsions and death: preserved all the animals
[1]; [13]
  Strychnine % Death rate: 0%
  Strychnine Strong % Conv.: 0%
[2]; oral, 100 mg/kg eq. 3-APS
  picrotoxin response: did not change
[2]; [12]
  Picrotoxin % Death rate: 90%
  Picrotoxin Strong % Conv.: 100%
[2]; [14]
  latency time of picrotoxin-induced first convulsion: increased
[2]; [13]
  Picrotoxin % Death rate: 90%
  Picrotoxin Strong % Conv.: 100%
[7]
  area under the curve of average number of seizures and their duration versus time, compared with controls: statistically significant difference
[8]; 250 mg/10 ml/kg oral, versus controls, Mann Whitney's U test
  area of the peaks: significantly decreased
[8]; MEAN (S.E.), 250 mg/kg oral, 5-hour EEG recording
  Peak area: 52.9 (5.87)**
[8]; MEAN (S.E.), 250 mg/kg oral, percentile 50% of accumulation function
  Ist shape index: 8.5 (1.0)**
[8]; MEAN (S.E.), 250 mg/kg oral, percentile 60% of accumulation function
  2nd shape index: 9.8 (1.2)
[8]; MEAN (S.E.), 250 mg/kg oral, percentile 70% of accumulation function
  3rd shape index: 11.8 (1.4)
[8]; MEAN (S.E.), 250 mg/kg oral, percentile 80% of accumulation function
  4th shape index: 13.8 (1.4)
[3]; oral, 100 mg/kg eq. 3-APS
  cardiazole response: did not change
[3]; [12]
  Cardiazol % Death rate: 90%
  Cardiazol Strong % Conv.: 90%
[3]; [14]
  latency time of cardiazole-induced first convulsion: increased
[3]; [13]
  Cardiazol % Death rate: 40%
  Cardiazol Strong % Conv.: 80%
[4]
  tolerability: well tolerated
[5]; dose 200 (unit not given)
  death rate: 4/10
[5]; dose 400 (unit not given)
  death rate: 5/10
[6]; oral, 100 mg/kg eq. 3-APS
  reduction of bicuculline-induced death rate: 20%
[6]; [15]
  latency time of the bicuculline-induced death: significantly increased
  latency time of the bicuculline-induced first convulsion: significantly increased
[6]; [12]
  Bicuculline % Death rate: 80%
  Bicuculline Strong % Conv.: 100%
[6]; [14]
  latency time of bicuculline-induced death: increased
  latency time of bicuculline-induced first convulsion: increased
[6]; [13]
  Bicuculline % Death rate: 80%
  Bicuculline Strong % Conv.: 100%
[9]; RAT, 100 mg/kg eq. 3 APS
  Cardiazol % Death rate: 60%
  Cardiazol Strong % Conv.: 60%
[9]; Wistar rats, dose equimolar to 100 mg 3-APS
  death rate reduction: 30%
[9]; Wistar rats, dose equimolar to 100 mg 3-APS, versus control
  first convulsion latency time: significant increase

## NCCCS(=O)(=O)O [3-APS, 3-aminopropanesulfonic acid]
[1]; 200 mg/kg i.p., mice
  Strychnine % Death rate: 90%
  Strychnine Strong % Conv.: 100%
[1]; 400 mg/kg i.p., mice
  Strychnine % Death rate: 100%
  Strychnine Strong % Conv.: 100%
[1]; 800 mg/kg i.p., mice
  Strychnine % Death rate: 90%
  Strychnine Strong % Conv.: 100%
[1]; [16]
  strychnine-induced death: did not preserve animals
[2]; 200 mg/kg i.p., mice
  Picrotoxin % Death rate: 20%
  Picrotoxin Strong % Conv.: 100%
[2]; [17]
  picrotoxin-induced first convulsion latency time: significantly increased
[2]; 400 mg/kg i.p., mice
  Picrotoxin % Death rate: 30%
  Picrotoxin Strong % Conv.: 100%
[2]; 800 mg/kg i.p., mice
  Picrotoxin % Death rate: 70%
  Picrotoxin Strong % Conv.: 30%
[2]; [16]
  picrotoxin-induced death: did not preserve animals
[3]; 200 mg/kg i.p., mice
  Cardiazol % Death rate: 50%
  Cardiazol Strong % Conv.: 100%
[3]; 400 mg/kg i.p., mice
  Cardiazol % Death rate: 90%
  Cardiazol Strong % Conv.: 100%
[3]; 800 mg/kg i.p., mice
  Cardiazol % Death rate: 60%
  Cardiazol Strong % Conv.: 100%
[3]; [16]
  cardiazol-induced death: did not preserve animals
[6]; 200 mg/kg i.p., mice
  Bicuculline % Death rate: 100%
  Bicuculline Strong % Conv.: 100%
[6]; [17]
  latency time of bicuculline-induced death: significantly increased
[6]; 400 mg/kg i.p., mice
  Bicuculline % Death rate: 75%
[6]; 400 mg/kg i.p., mice, 8 animals per group
  Bicuculline Strong % Conv.: 100* %
[6]; 800 mg/kg i.p., mice
  Bicuculline % Death rate: 40%
  Bicuculline Strong % Conv.: 70%
[6]; 800 mg/kg i.p., mice, versus control
  bicuculline-induced first convulsion latency time: significantly increased
[6]; [16]
  bicuculline-induced death: did not preserve animals
